Patent US12723063B2, “GIPR-agonist compounds” (Eli Lilly and Company, priority 2019, dated 2026)
pKi: −log10 of the molar value.

What was measured:
human GcgR = biological target: T1, human GcgR (Homo sapiens, UniProt P47871); assay: [125I]-Glucagon binding, SPA with WGA beads, 0.1% bacitracin; conditions: geometric mean, read-out: hGcgR Ki
T1 construct: expressed in transfected cells; crude membranes
Method: Stably transfected cell lines are prepared by subcloning receptor cDNA into a pcDNA3 expression plasmid and transfected into human embryonic kidney (HEK) 293 (hGcgR and hGLP-1R) or Chinese Hamster Ovary (CHO) (hGIPR) cells followed by selection with Geneticin (hGLP-1R and hGIPR) or hygromycin B (hGcgR).
Two methods are used for the preparation of crude cell membranes.
Method 1: Frozen cell pellets are lysed on ice in hypotonic buffer containing 50 mM Tris HCl, pH 7.5, and Roche Complete™ Protease Inhibitors with EDTA. The cell suspension is disrupted using a glass Potter-Elvehjem homogenizer fitted with a Teflon® pestle for 25 strokes. The homogenate is centrifuged at 4° C. at 1100× g for 10 minutes. The supernatant is collected and stored on ice while the pellets are resuspended in homogenization buffer and rehomogenized as described above. The homogenate is centrifuged at 1100× g for 10 minutes. The second supernatant is combined with the first supernatant and centrifuged at 35000× g for 1 hour at 4° C. The resulting membrane pellet is resuspended in homogenization buffer containing protease inhibitors at approximately 1 to 3 mg/mL, quick frozen in liquid nitrogen and stored as aliquots in a −80° C. freezer until use.
Method 2: Frozen cell pellets are lysed on ice in hypotonic buffer containing 50 mM Tris HCl, pH 7.5, 1 mM MgCl2, Roche Complete™ EDTA-free Protease Inhibitors and 25 units/mL DNAse I (Invitrogen). The cell suspension is disrupted using a glass Potter-Elvehjem homogenizer fitted with a Teflon® pestle for 20 to 25 strokes. The homogenate is centrifuged at 4° C. at 1800× g for 15 minutes. The supernatant is collected and stored on ice while the pellets are resuspended in homogenization buffer (without DNAse I) and rehomogenized as described above. The homogenate is centrifuged at 1800× g for 15 minutes. The second supernatant is combined with the first supernatant and centrifuged an additional time at 1800× g for 15 minutes. The overall supernatant is then centrifuged at 25000× g for 30 minutes at 4° C. The resulting membrane pellet is resuspended in homogenization buffer (without DNAse I) containing protease inhibitors at approximately 1 to 3 mg/mL and stored as aliquots in a −80° C. freezer until use.
The human Geg receptor binding assays are performed using a Scintillation Proximity Assay (SPA) format with wheat germ agglutinin (WGA) beads (Perkin Elmer). The binding buffer contains 25 mM 4-(2-hydroxyethyl)-1-piperazineethanesulfonic acid (HEPES), pH 7.4, 2.5 mM CaCl2), 1 mM MgCl2, 0.1% (w/v) bacitracin (Research Products), 0.003% (w/v) Polyoxyethylenesorbitan monolaurate (TWEEN®-20), and Roche Complete™ Protease Inhibitors without EDTA. Peptides and Gcg are thawed and 3-fold serially diluted in 100% DMSO (10 point concentration response curves). Next, 5 μL serially diluted compound or DMSO is transferred into Corning® 3632 clear bottom assay plates containing 45 μL assay binding buffer or unlabeled Gcg control (non-specific binding or NSB, at 1 μM final). […] Plates are sealed and mixed on a plate shaker (setting 6) for 1 minute and read with a PerkinElmer Trilux MicroBeta® scintillation counter after 12 hours of incubation/settling time at room temperature.
Data are analyzed using four-parameter (curve maximum, curve minimum, IC50, Hill slope) nonlinear regression routines (Genedata Screener, version 12.0.4, Genedata AG, Basal, Switzerland). […] Values for Ki are reported as the geometric mean, with error expressed as the standard error of the mean (SEM) and n is equal to the number of independent replicates (determined in assays performed on different days). […] SEM is only calculated when […] or greater. Means are expressed as geometric means with the standard error of the mean (SEM) and the number of replicates (n) indicated in parentheses.

[1] = biological target: T2, human GLP-1 receptor (GLP-1R) (Homo sapiens, UniProt P43220); assay: cAMP functional assay (HTRF) in HEK293 cells in presence of 0.1% casein; format: cell-based; conditions: HEK293 cells expressing human GLP-1R, geometric mean, read-out: hGLP1R cAMP Rel EC50 nM (SEM, n)
T2 construct: expressed in transfected cells; host or cells: HEK293
Method: Each receptor over-expressing cell line (20 μl) is treated with the test peptide in DMEM (Gibco Cat #31053) supplemented with 0.1% Casein (Sigma Cat #C4765), 250 μM IBMX, 1× GlutaMAX™ (Gibco Cat #35050), and 20 mM HEPES (HyClone Cat #SH30237.01) in a 20 μl assay volume. After incubating for 60 minutes at room temperature, the resulting increase in intracellular CAMP is quantitatively determined using the CisBio CAMP Dynamic 2 HTRF Assay Kit (62AM4PEJ). The Lysis buffer containing cAMP-d2 conjugate (20 μl) and the antibody anti-cAMP-Eu3+-Cryptate (20 μl) are then added to determine the cAMP level. After incubating 60 minutes at room temperature, HTRF signal is detected with an Envision 2104 plate reader (PerkinElmer). Fluorescent emission at 620 nm and at 665 nm is measured and the ratio between 620 nm and at 665 nm is calculated and then are converted to nM cAMP per well using a cAMP standard curve. Dose response curves of compounds are plotted as the percentage of stimulation normalized to minimum (buffer only) and maximum (maximum concentration of each control ligand) values and analyzed using a four parameter non-linear regression fit with a variable slope (Genedata Screener 13). EC50 is the concentration of compound causing half-maximal simulation in a dose response curve. A relative EC50 value is derived by non-linear regression analysis using the percent maximal response vs, the concentration of peptide added, fitted to a four-parameter logistic equation.
Intracellular cAMP levels are determined by extrapolation using a standard curve. Dose response curves of compounds are plotted as the percentage of stimulation normalized to minimum (buffer only) and maximum (maximum concentration of each control ligand) values and analyzed using a four-parameter non-linear regression fit with a variable slope (Genedata Screener 13). EC50 is the concentration of compound causing half-maximal simulation in a dose response curve. Each relative EC50 value for the geometric mean calculation is determined from a curve fitting.
Concentration response curves of compounds are plotted as the percentage of stimulation normalized to minimum (buffer only) and maximum (maximum concentration of each control ligand) values and analyzed using a four-parameter non-linear regression fit with a variable slope (Genedata Screener 13). EC50 is the concentration of compound causing half-maximal simulation in a dose response curve. […] The standard error of the mean is reported:
[formula] • The log transform accounts for the EC50 values falling on a multiplicative, rather than an arithmetic scale.
For illustration, as shown by Example 1, the peptide is tested in 8 runs of the hGIPR CAMP assay. […] Accordingly, each Example will use the geometric mean of those values to normalize the Example assay runs.

T1 sequence (P47871 26-477): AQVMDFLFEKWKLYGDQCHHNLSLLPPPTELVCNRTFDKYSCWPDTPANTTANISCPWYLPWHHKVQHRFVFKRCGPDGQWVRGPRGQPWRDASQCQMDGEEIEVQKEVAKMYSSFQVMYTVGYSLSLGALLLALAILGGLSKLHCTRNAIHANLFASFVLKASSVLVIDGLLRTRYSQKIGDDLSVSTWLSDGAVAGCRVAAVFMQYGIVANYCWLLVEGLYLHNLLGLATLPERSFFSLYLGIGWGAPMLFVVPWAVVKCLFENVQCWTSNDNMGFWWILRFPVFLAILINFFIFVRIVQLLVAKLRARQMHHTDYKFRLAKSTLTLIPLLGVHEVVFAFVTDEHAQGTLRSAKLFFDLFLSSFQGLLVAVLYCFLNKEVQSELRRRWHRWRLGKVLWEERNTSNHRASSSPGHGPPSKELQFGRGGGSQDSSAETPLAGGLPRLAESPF
T2 sequence (P43220 24-463): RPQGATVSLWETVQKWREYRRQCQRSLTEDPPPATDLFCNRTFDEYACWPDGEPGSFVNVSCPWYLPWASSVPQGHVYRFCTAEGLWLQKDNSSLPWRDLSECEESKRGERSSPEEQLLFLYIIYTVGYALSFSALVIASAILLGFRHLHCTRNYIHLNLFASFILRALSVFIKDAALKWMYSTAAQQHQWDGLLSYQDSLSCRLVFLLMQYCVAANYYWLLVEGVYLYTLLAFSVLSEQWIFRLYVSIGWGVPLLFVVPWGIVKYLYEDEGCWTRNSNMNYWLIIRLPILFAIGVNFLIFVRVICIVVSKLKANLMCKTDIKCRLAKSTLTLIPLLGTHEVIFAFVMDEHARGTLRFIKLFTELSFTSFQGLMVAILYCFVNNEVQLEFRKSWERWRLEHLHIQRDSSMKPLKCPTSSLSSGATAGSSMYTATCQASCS

Row | Structure (SMILES) | pKi (human GcgR) | EC50 [1] [nM]
1 | CC[C@H](C)[C@H](NC(=O)[C@H](CO)NC(=O)[C@H](Cc1ccc(O)cc1)NC(=O)[C@H](CC(=O)O)NC(=O)[C@H](CO)NC(=O)[C@@H](NC(=O)[C@H](Cc1ccccc1)NC(=O)[C@@H](NC(=O)CNC(=O)[C@H](CCC(=O)O)NC(=O)[C@@H](C)NC(=O)[C@@H](N)Cc1ccc(O)cc1)[C@@H](C)O)[C@@H](C)CC)C(=O)N[C@@H](CC(C)C)C(=O)N[C@@H](CC(C)C)C(=O)N[C@@H](CC(=O)O)C(=O)N[C@@H](CCCCN)C(=O)N[C@@H](CCCCNC(=O)COCCOCCNC(=O)COCCOCCNC(=O)CC[C@H](NC(=O)CCCCCCCCCCCCCCCCCCC(=O)O)C(=O)O)C(=O)N[C@@H](C)C(=O)N[C@@H](CCC(N)=O)C(=O)NC(C)(C)C(=O)N[C@@H](CC(=O)O)C(=O)N[C@@H](Cc1ccccc1)C(=O)N[C@H](C(=O)N[C@@H](CC(N)=O)C(=O)N[C@@H](Cc1c[nH]c2ccccc12)C(=O)N[C@@H](CC(C)C)C(=O)N[C@@H](CC(C)C)C(=O)N[C@@H](C)C(=O)N[C@@H](CCC(N)=O)C(=O)NCC(=O)N1CCC[C@H]1C(=O)N[C@@H](CO)C(=O)N[C@@H](CO)C(=O)NCC(=O)N[C@@H](C)C(=O)N1CCC[C@H]1C(=O)N1CCC[C@H]1C(=O)N1CCC[C@H]1C(=O)N[C@@H](CO)C(N)=O)C(C)C [Example 1] | 6.64 | > 5000
2 | CC[C@H](C)[C@H](NC(=O)[C@H](CO)NC(=O)[C@H](Cc1ccc(O)cc1)NC(=O)[C@H](CC(=O)O)NC(=O)[C@H](CO)NC(=O)[C@@H](NC(=O)[C@H](Cc1ccccc1)NC(=O)[C@@H](NC(=O)CNC(=O)[C@H](CCC(=O)O)NC(=O)[C@@H](C)NC(=O)[C@@H](N)Cc1ccc(O)cc1)[C@@H](C)O)[C@@H](C)CC)C(=O)N[C@@H](CC(C)C)C(=O)N[C@@H](CC(C)C)C(=O)N[C@@H](CC(=O)O)C(=O)N[C@@H](CCCCN)C(=O)N[C@@H](CCCCNC(=O)COCCOCCNC(=O)COCCOCCNC(=O)CC[C@H](NC(=O)CCCCCCCCCCCCCCCCC(=O)O)C(=O)O)C(=O)N[C@@H](C)C(=O)N[C@@H](CCC(N)=O)C(=O)NC(C)(C)C(=O)N[C@@H](CC(=O)O)C(=O)N[C@@H](Cc1ccccc1)C(=O)N[C@H](C(=O)N[C@@H](CC(N)=O)C(=O)N[C@@H](Cc1c[nH]c2ccccc12)C(=O)N[C@@H](CC(C)C)C(=O)N[C@@H](CC(C)C)C(=O)N[C@@H](C)C(=O)N[C@@H](CCC(N)=O)C(=O)NCC(=O)N1CCC[C@H]1C(=O)N[C@@H](CO)C(=O)N[C@@H](CO)C(=O)NCC(=O)N[C@@H](C)C(=O)N1CCC[C@H]1C(=O)N1CCC[C@H]1C(=O)N1CCC[C@H]1C(=O)N[C@@H](CO)C(N)=O)C(C)C [Example 2] | 6.42 | > 5000
3 | CC[C@H](C)[C@H](NC(=O)[C@H](Cc1ccccc1)NC(=O)[C@@H](NC(=O)CNC(=O)[C@H](CCC(=O)O)NC(=O)C(C)(C)NC(=O)[C@@H](N)Cc1ccc(O)cc1)[C@@H](C)O)C(=O)N[C@@H](CO)C(=O)N[C@@H](CC(=O)O)C(=O)N[C@@H](Cc1ccc(O)cc1)C(=O)N[C@@H](CO)C(=O)N[C@H](C(=O)N[C@@](C)(CC(C)C)C(=O)N[C@@H](CC(C)C)C(=O)N[C@@H](CC(=O)O)C(=O)N[C@@H](CCCCN)C(=O)N[C@@H](CCCCNC(=O)COCCOCCNC(=O)COCCOCCNC(=O)CC[C@H](NC(=O)CCCCCCCCCCCCCCCCCCC(=O)O)C(=O)O)C(=O)N[C@@H](Cc1c[nH]cn1)C(=O)N[C@@H](CCC(N)=O)C(=O)NC(C)(C)C(=O)N[C@@H](CC(=O)O)C(=O)N[C@@H](Cc1ccccc1)C(=O)N[C@H](C(=O)N[C@@H](CCC(=O)O)C(=O)N[C@@H](Cc1ccncc1)C(=O)N[C@@H](CC(C)C)C(=O)N[C@@H](CC(C)C)C(=O)N[C@@H](CCC(=O)O)C(=O)N[C@@H](C)C(=O)NCC(=O)N1CCC[C@H]1C(=O)N[C@@H](CO)C(=O)N[C@@H](CO)C(=O)NCC(=O)N[C@@H](C)C(=O)N1CCC[C@H]1C(=O)N1CCC[C@H]1C(=O)N1CCC[C@H]1C(=O)N[C@@H](CO)C(N)=O)C(C)C)[C@@H](C)CC [Example 3] | 6.47 | > 5000
4 | CC[C@H](C)[C@H](NC(=O)[C@H](Cc1ccccc1)NC(=O)[C@@H](NC(=O)CNC(=O)[C@H](CCC(=O)O)NC(=O)C(C)(C)NC(=O)[C@@H](N)Cc1ccc(O)cc1)[C@@H](C)O)C(=O)N[C@@H](CO)C(=O)N[C@@H](CC(=O)O)C(=O)N[C@@H](Cc1ccc(O)cc1)C(=O)N[C@@H](CO)C(=O)N[C@H](C(=O)N[C@@](C)(CC(C)C)C(=O)N[C@@H](CC(C)C)C(=O)N[C@@H](CC(=O)O)C(=O)N[C@@H](CCCN)C(=O)N[C@@H](CCCCNC(=O)COCCOCCNC(=O)COCCOCCNC(=O)CC[C@H](NC(=O)CCCCCCCCCCCCCCCCCCC(=O)O)C(=O)O)C(=O)N[C@@H](Cc1c[nH]cn1)C(=O)N[C@@H](CCC(N)=O)C(=O)NC(C)(C)C(=O)N[C@@H](CC(=O)O)C(=O)N[C@@H](Cc1ccccc1)C(=O)N[C@H](C(=O)N[C@@H](CCC(=O)O)C(=O)N[C@@H](Cc1ccncc1)C(=O)N[C@@H](CC(C)C)C(=O)N[C@@H](CC(C)C)C(=O)N[C@@H](CCC(=O)O)C(=O)N[C@@H](C)C(=O)NCC(=O)N1CCC[C@H]1C(=O)N[C@@H](CO)C(=O)N[C@@H](CO)C(=O)NCC(=O)N[C@@H](C)C(=O)N1CCC[C@H]1C(=O)N1CCC[C@H]1C(=O)N1CCC[C@H]1C(=O)N[C@@H](CO)C(N)=O)C(C)C)[C@@H](C)CC [Example 4] | 6.37 | > 5000
